Measurements published in publication PMC4547777 (Angewandte Chemie (International ed. in English), 2015).

Target: Androgen Receptor (AR) (Homo sapiens, UniProt P10275)
Experiment: competition radioligand binding with [3H]-R1881

Chain of Androgen Receptor (AR) (P10275 whole entry): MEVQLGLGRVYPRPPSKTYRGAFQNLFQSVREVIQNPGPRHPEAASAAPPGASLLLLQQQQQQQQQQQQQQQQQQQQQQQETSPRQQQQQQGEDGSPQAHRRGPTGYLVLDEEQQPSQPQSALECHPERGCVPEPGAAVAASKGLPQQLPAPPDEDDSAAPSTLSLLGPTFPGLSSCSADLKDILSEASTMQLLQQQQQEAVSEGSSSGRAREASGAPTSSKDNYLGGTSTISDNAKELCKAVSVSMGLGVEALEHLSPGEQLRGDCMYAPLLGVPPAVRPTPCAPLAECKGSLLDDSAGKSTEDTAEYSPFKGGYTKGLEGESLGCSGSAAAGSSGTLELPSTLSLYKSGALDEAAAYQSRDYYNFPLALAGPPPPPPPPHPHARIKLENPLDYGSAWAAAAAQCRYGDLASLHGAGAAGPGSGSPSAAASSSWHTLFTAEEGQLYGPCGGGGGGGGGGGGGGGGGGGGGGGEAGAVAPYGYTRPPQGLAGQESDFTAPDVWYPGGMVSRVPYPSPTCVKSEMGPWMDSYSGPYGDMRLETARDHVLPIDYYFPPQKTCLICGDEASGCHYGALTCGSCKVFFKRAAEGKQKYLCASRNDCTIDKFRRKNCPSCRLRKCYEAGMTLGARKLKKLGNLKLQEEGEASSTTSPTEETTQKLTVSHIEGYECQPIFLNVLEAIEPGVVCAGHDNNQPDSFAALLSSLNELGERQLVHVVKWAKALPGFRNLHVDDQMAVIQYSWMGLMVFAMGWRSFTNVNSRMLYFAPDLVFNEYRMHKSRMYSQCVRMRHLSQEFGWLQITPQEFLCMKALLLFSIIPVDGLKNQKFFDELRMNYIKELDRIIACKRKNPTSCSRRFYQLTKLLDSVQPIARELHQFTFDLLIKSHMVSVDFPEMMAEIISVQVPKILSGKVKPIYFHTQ

CC1(C)C(=O)N(c2ccc(C#N)c(C(F)(F)F)c2)C(=S)N1CCCCO [RU59063]
competition radioligand binding with [3H]-R1881 (parent ligand): competition radioligand binding assay using [^3H]-R1881 showed that appending of the adamantyl group to RU59063 reduced affinity
